In publication PMC6978316, “Development of chimeric peptides to facilitate the neutralisation of lipopolysaccharides during bactericidal targeting of multidrug-resistant Escherichia coli” (Communications Biology, 2020):
Where a SMILES comes first, the peptide text is derived from it. Bridges are numbered along the chain shown (N, C = ends).

Tests used:
MDR E. coli CVCC195 [1] = experiment: Time-killing curves (bactericidal kinetics); assay type: cell-based, Escherichia coli; settings: 1 × or 2 × MIC, MHB, 37 °C
Protocol: The bactericidal effect of peptides was investigated according to previous methods. […] Physiological saline was added as a control. Bacterial samples (100 μl) were removed at different time points (0, 0.5, 1, 2, 4, 6, 8, 10, and 12 h) and were counted on MH solid plates. The time-killing curve of A6 and G6 was plotted.

binding of LPS to LBP = experiment: Binding of LPS to LBP on LPS-immobilized plate (ELISA); assay type: biochemical; settings: mean of n = 3
Protocol: The 96-well microtiter plates were coated with 4 ng per ml LPS (0.1 M Na2CO3 and 20 mM EDTA, pH 9.6, 50 μl per well) overnight at 4 °C, washed three times with PBST, and blocked with PBS (containing 1% BSA) for 2 h. After washing with PBST again, the plates were incubated at 37 °C for 1 h with different concentrations of peptides (A6, G6, or N6), which were dissolved in Dulbecco's Modified Eagle's (DMEM) medium (containing 10% FBS). After washing, cells were incubated with anti-LBP mAb 6G3 (ThermoFisher) for 1 h at 37 °C and HRP-conjugated rabbit anti-mouse IgG for 1 h at room temperature, respectively. Tetramethylbenzidine (TMB) solution was then added and incubated for 25–30 min. Finally, the reaction was stopped by addition of 0.5 M H2SO4, and the absorbance was measured at 450 nm[50].

[2] = test system: Intestinal alkaline phosphatase (IAP); experiment: IAP level in duodenum of LPS-challenged mice; assay type: in vivo; settings: duodenum homogenate, peptides 0.25 μmol per kg, PMB 10 μmol per kg, LPS alone 10.2985, CK 14.2257, n = 3
Protocol: The mice were intraperitoneally injected with LPS at an absolute LD100 and then were treated with 0.25 μmol per kg peptides (A6, G6 and N6) or 10 μmol per kg PMB at 0.5 h after challenge. The mice were sacrificed at 2 h and the sera were collected to detect inflammatory cytokines (including TNF-α, IL-6 and IL-10) using ELISA kits. To visualize IAP activity, the duodenum was rapidly excised from the mice and was homogenized; the IAP levels in the superpants were detected as described in the Supplementary Information. […]
114 Effects of SCPs on inflammatory cytokines and IAP. The serum sample (50 μl) was added into
115 each well of the plate; 50 μl of TNF-α, IL-I, IL-10 or IAP standard, control and test samples were then
116 added to each well of the plate, followed by placing the latex film on the shaker and incubation for 2
117 h at room temperature. After discarding the liquid in the well, the enzyme labeling plate was placed in
118 a 400 μl washing solution in the washing machine for 4 times; the enzyme labeling plate is inverted
119 and tapped on a clean paper towel so that there was no residual liquid in each hole . Mouse TNF-α，
120 IL-I，IL10 or IAP Conjugate (HRP Conjugate Detection Ab) working solution (100 μl) was added to
121 each well of the plate (diluted 1:100 before the test); the latex film was placed on the shaker and
122 incubated for 2 h at room temperature. After discarding the liquid in the well, the enzyme labeling
123 plate was placed in a 400 μl washing solution in the washing machine for 4 times, then the enzyme
124 labeling plate is inverted, and tapped on a clean paper towel so that there is no residual liquid in each
125 hole. Substrate Solution (100 μl) was added to each well of the plate and incubated at room
126 temperature for 30 min in the dark. Finally, 100 μl of Stop Solution (2N sulfuric acid solution) was
127 added to each well of the plate and gently mixed the plate to stop the reaction. The optical density
128 value was read by placing the microplate in a microplate reader for 30 min with the reading
129 wavelength of 450 nm and the calibration wavelength of 570 nm.
131 1. Kaplan, C. W., et al. Selective membrane disruption: mode of action of C16G2, a specifically
133 2. Eckert, R., et al. Adding selectivity to antimicrobial peptides: rational design of a multidomain
134 peptide against Pseudomonas spp. Antimicrob Agents Chemother. 50(4), 1480–1488 (2006).
135 3. Eckert, R., et al. Targeted killing of Streptococcus mutans by a pheromone-guided "smart"

E. coli CVCC195 = assay type: cell-based, Escherichia coli; settings: E. coli CVCC195
Protocol: Bacterial resistance against the peptides was assessed via the MIC assays. […] After 16–18 h of incubation at 37 °C, cells from the second highest concentration showing visible growth were used to inoculate the subsequent cultures. The MIC values for drug passage cultures were obtained as described above. This process was repeated for 30 d.

MDR E. coli CVCC195 [3] = experiment: SEM and TEM, cell morphology and ultrastructure; assay type: cell-based, Escherichia coli; settings: E. coli CVCC195, 4 × MIC, 2 h; at least 200 cells scored; manuscript lines quoted in the peer review file
Protocol: SEM was used to examine the ultrastructural changes in bacteria treated with peptides. […] PBS was used as the negative control. After centrifugation, the bacterial precipitation was added with 2.5% glutaraldehyde and the cells were fixed at 4 °C for 24 h. After ethanol dehydration, drying and coating, samples were visualized by a QUANTA200 SEM (FEI, Philips, Netherlands)[65].
The processing and preparation of TEM samples was similar to that of SEM until glutaraldehyde fixation. After washing with PBS, bacterial cells were fixed in 1% […] buffer for 1 h, dehydrated in a series of acetone (50–100%) and embedded, followed by preparation into ultra-thin sections and staining with 1% uranyl acetate. […] At least 200 bacterial cells were visualized and scored for the observed characteristics.

MDR E. coli CVCC195 [4] = experiment: pH stability, residual antibacterial activity (inhibition zone); assay type: physicochemical, Escherichia coli; settings: inhibition zone vs E. coli CVCC195, mean of n = 3
Protocol: The N6, A6, and G6 solutions were treated at different temperatures (20–100 °C) for 1 h, dissolved and incubated at different pH values (2–10) for 3 h, or incubated with trypsin or pepsin for 4 h. The inhibition zone diameters were measured after incubation at 37 °C for 18–24 h.

E. coli LPS = experiment: Sepsis mouse model, survival after lethal LPS challenge; assay type: in vivo, ICR mice; settings: mice, LPS 13.5 mg per kg i.p., 7 d, n = 5; for survival rate: 0.0625 μmol per kg; for mouse survival: 0.125 μmol per kg
Protocol: The mouse survival was recorded for 7 d. The mice injected with LPS or saline were used as negative or blank controls, respectively.

[5] = 0.625 μM, LPS-coated plate, peptide in DMEM + 10% FBS, 37 °C, 1 h, anti-LBP mAb, OD450

Row | Molecule | time to completely kill E. coli CVCC195 (MDR E. coli CVCC195 [1]) | LPS-LBP binding (relative), Mean (binding of LPS to LBP; [5]) | LPS-LBP binding (relative), Mean (binding of LPS to LBP; 1.25 μM) | LPS-LBP binding (relative), Mean (binding of LPS to LBP; 2.5 μM) | LPS-LBP binding (relative), Mean (binding of LPS to LBP; 5 μM) | LPS-LBP binding (relative), Mean (binding of LPS to LBP; 10 μM) | LPS-LBP binding (relative), Mean (binding of LPS to LBP; 20 μM) | LPS-LBP binding (relative), Mean (binding of LPS to LBP; 40 μM) | IAP, Mean [2] | change of MIC over the course of 30 serial passages (E. coli CVCC195) | abnormal cells in TEM (lysis, non-uniform cytoplasmic electron and morphologically abnormal cells) (MDR E. coli CVCC195 [3]) | antibacterial activity after pH treatment (inhibition zone diameter), Mean (MDR E. coli CVCC195 [4]; pH=2 for 3 h) | antibacterial activity after pH treatment (inhibition zone diameter), Mean (MDR E. coli CVCC195 [4]; pH=4 for 3 h) | antibacterial activity after pH treatment (inhibition zone diameter), Mean (MDR E. coli CVCC195 [4]; pH=6 for 3 h) | antibacterial activity after pH treatment (inhibition zone diameter), Mean (MDR E. coli CVCC195 [4]; pH=8 for 3 h) | antibacterial activity after pH treatment (inhibition zone diameter), Mean (MDR E. coli CVCC195 [4]; pH=10 for 3 h) | survival rate (E. coli LPS) | mouse survival (E. coli LPS) | survival (E. coli LPS; 0.25 μmol per kg) | survival (E. coli LPS; 10 μmol per kg)
1 | CC(C)[C@@H]1NC(=O)CNC(=O)[C@H](CC(N)=O)NC(=O)[C@H](CCCNC(=N)N)NC(=O)[C@H](Cc2ccc(O)cc2)NC(=O)[C@H](C(C)C)NC(=O)[C@@H](NC(=O)[C@@H](NC(=O)[C@H](CC(N)=O)NC(=O)[C@H](Cc2c[nH]c3ccccc23)NC(=O)[C@H](C)NC(=O)[C@H](Cc2ccccc2)NC(=O)CNC(=O)[C@H](CO)NC(=O)CNC(=O)CNC(=O)CNC(=O)CNC(=O)[C@H](CCCCN)NC(=O)[C@H](Cc2ccccc2)NC(=O)[C@H](Cc2ccccc2)NC(=O)[C@H](CO)NC(=O)[C@H](C)NC(=O)[C@H](CCCNC(=N)N)NC(=O)[C@@H](NC(=O)[C@H](CCCCN)NC(=O)[C@H](Cc2c[nH]c3ccccc23)NC(=O)[C@H](CCCNC(=N)N)NC(=O)CNC(=O)[C@H](CCC(N)=O)NC(=O)[C@@H](NC(=O)[C@@H](N)CCCNC(=N)N)C(C)C)C(C)C)C(C)C)CSSC[C@@H](C(=O)N[C@@H](Cc2c[nH]cn2)C(=O)N[C@@H](CCCNC(=N)N)C(=O)N[C@@H](CCCNC(=N)N)C(=O)N[C@@H](C)C(=O)N[C@@H](CC(N)=O)C(=O)O)NC(=O)[C@H](C(C)C)NC(=O)[C@H](CCCNC(=N)N)NC1=O [G6] (H-RVQGRWKVRASFFKGGGGSGFAWNVCVYRNGVRVCHRRAN-OH; disulfide 26-35) | ≤ 1 h | 0.7905 | 0.7506 | 0.344 | 0.2387 | 0.1958 | 0.1311 | 0.1347 | 11.4812 | hardly changed | ~50% | 1.407 | 1.44 | 1.4 | 1.383 | 1.387 | 80% | 100% |  | 
2 | CC(C)[C@@H]1NC(=O)CNC(=O)[C@H](CC(N)=O)NC(=O)[C@H](CCCNC(=N)N)NC(=O)[C@H](Cc2ccc(O)cc2)NC(=O)[C@H](C(C)C)NC(=O)[C@@H](NC(=O)[C@@H](NC(=O)[C@H](CC(N)=O)NC(=O)[C@H](Cc2c[nH]c3ccccc23)NC(=O)[C@H](C)NC(=O)[C@H](Cc2ccccc2)NC(=O)CN)C(C)C)CSSC[C@@H](C(=O)N[C@@H](Cc2c[nH]cn2)C(=O)N[C@@H](CCCNC(=N)N)C(=O)N[C@@H](CCCNC(=N)N)C(=O)N[C@@H](C)C(=O)N[C@@H](CC(N)=O)C(=O)O)NC(=O)[C@H](C(C)C)NC(=O)[C@H](CCCNC(=N)N)NC1=O [N6] (H-GFAWNVCVYRNGVRVCHRRAN-OH; disulfide 7-16; N-terminus and C-terminus assumed) | 4 h | 0.82 | 1.017 | 0.8065 | 0.8105 | 0.7607 | 0.6457 | 0.5608 | 10.7594 |  | 19% | 1.883 | 1.877 | 1.87 | 1.86 | 1.887 |  | 60% | All mice survived | 
3 | H-RVQGRWKVRASFFKEAAAKEAAAKGFAWNVCVYRNGVRVCHRRAN-OH (disulfide 31-40) [A6] | ≤ 1 h | 0.6863 | 0.4991 | 0.4036 | 0.3236 | 0.2858 | 0.2468 | 0.1705 | 11.893 | hardly changed | Approximately 75% | 1.463 | 1.443 | 1.4 | 1.41 | 1.4 | 60% | 100% |  | 
4 | polymyxin B [PMB] | ≤ 1 h | 0.8274 | 0.5768 | 0.4491 | 0.3343 | 0.393 | 0.3466 | 0.2168 | 13.0879 | hardly changed | 1% |  |  |  |  |  |  |  |  | All mice survived
